Experimental data as given in paper PMC10149257, “Substrate recognition and proton coupling by a bacterial member of solute carrier family 17” (The Journal of Biological Chemistry, 2023).
Values belong to the molecule of their own block, whether it stands above or below them.

Legend:
Sialin [1] = molecular target: T1, Sialin (Rattus norvegicus, UniProt Q5Q0U0); experiment: inhibition of 3H-glucuronic acid uptake by unlabelled compound in transfected HEK293T cells; format: cell-based; conditions: room temperature, 4 min, Ringer's solution; self-competition with labelled compound
T1 construct: gene Slc17a5
T1 sequence (Q5Q0U0 1-495): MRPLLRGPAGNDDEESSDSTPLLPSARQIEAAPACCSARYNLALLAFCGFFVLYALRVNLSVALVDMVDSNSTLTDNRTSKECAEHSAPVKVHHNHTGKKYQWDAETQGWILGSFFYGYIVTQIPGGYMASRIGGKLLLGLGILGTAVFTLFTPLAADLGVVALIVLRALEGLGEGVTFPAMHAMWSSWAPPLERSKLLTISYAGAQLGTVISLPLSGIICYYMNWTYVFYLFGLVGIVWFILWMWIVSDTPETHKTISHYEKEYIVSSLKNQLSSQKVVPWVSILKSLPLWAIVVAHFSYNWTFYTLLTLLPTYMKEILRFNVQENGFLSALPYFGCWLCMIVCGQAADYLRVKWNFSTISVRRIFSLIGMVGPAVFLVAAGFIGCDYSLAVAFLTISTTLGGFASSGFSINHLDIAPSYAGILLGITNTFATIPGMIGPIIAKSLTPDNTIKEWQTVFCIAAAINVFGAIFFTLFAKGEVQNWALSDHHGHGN

Sialin [2] = molecular target: T2, Sialin (Rattus norvegicus, UniProt Q5Q0U0, Y54F, form not given); experiment: as above; format: cell-based; conditions: room temperature, 4 min, Ringer's solution; self-competition with labelled compound
T2 construct: gene Slc17a5
T2 sequence (Q5Q0U0 1-495 Y54F): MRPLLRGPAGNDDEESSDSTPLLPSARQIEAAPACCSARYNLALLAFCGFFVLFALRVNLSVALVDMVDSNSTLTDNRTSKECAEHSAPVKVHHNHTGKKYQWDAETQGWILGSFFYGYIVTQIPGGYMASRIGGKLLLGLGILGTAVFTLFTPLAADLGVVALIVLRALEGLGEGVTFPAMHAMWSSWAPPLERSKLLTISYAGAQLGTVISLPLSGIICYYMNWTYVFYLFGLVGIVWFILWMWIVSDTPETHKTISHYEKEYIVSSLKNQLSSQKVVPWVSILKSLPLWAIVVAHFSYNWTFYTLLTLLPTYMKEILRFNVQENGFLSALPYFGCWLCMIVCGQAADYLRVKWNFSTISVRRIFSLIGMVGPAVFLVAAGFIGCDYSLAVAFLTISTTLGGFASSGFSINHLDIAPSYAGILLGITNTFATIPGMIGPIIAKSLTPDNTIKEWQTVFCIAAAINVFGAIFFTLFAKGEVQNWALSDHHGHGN

[3] = tested on: T3, O=C(O)[C@H](O)[C@@H](O)[C@@H](O)[C@H](O)CO; experiment: cells, lysate or membranes; format: cell-based, Escherichia coli; conditions: 150 mM KCl, pH 6, 30 °C, 30 s, H+ cotransport, labelled compound
T3 construct: full length, C-terminal modified decahistidine tag, pBAD; expressed in dgoT-deleted E. coli (Keio dgoT727(del)::kan)

[4] = substrate: O=C(O)[C@H](O)[C@@H](O)[C@@H](O)[C@H](O)CO; experiment: cells, lysate or membranes; format: cell-based, Escherichia coli; conditions: 150 mM KCl, pH 6, 30 °C, 20 s, H+ cotransport, labelled compound

IC50 (Sialin [1]): ~2000 µM
IC50 (Sialin [2]): ~3000 µM
Molecule: O=C(O)[C@H]1OC(O)[C@H](O)[C@@H](O)[C@@H]1O (stereo partly shown) [glucuronic acid]

Molecule: DgoT (Escherichia coli; Y44F)
Km [3]: 22.8 ± 7.7 µM

B1: DgoT (Escherichia coli) (protein)
chain: MVSGFAMPKIWRKLAMDIPVNAAKPGRRRYLTLVMIFITVVICYVDRANLAVASAHIQEEFGITKAEMGYVFSAFAWLYTLCQIPGGWFLDRVGSRVTYFIAIFGWSVATLFQGFATGLMSLIGLRAITGIFEAPAFPTNNRMVTSWFPEHERASAVGFYTSGQFVGLAFLTPLLIWIQEMLSWHWVFIVTGGIGIIWSLIWFKVYQPPRLTKGISKAELDYIRDGGGLVDGDAPVKKEARQPLTAKDWKLVFHRKLIGVYLGQFAVASTLWFFLTWFPNYLTQEKGITALKAGFMTTVPFLAAFVGVLLSGWVADLLVRKGFSLGFARKTPIICGLLISTCIMGANYTNDPMMIMCLMALAFFGNGFASITWSLVSSLAPMRLIGLTGGVFNFAGGLGGITVPLVVGYLAQGYGFAPALVYISAVALIGALSYILLVGDVKRVG
notes: full length, C-terminal modified decahistidine tag, pBAD; expressed in dgoT-deleted E. coli (Keio dgoT727(del)::kan)
Km [4]: 1.97 ± 1.1 µM
